Measured values: PubChem BioAssay AID1259407 (Chemical Carcinogenesis Research Information System (CCRIS), 2018)
Calls of active or inactive are those of the source. The rule behind the calls is not given here.

Tested on: CCRIS mutagenicity, Ames/micronucleus/aberration tests
Assay: CCRIS mutagenicity studies
[1] = Test System: AMES SALMONELLA TYPHIMURIUM, Strain/Indicator: TA98, Metabolic Activation: NONE, Method: STANDARD PLATE
[2] = Test System: AMES SALMONELLA TYPHIMURIUM, Strain/Indicator: TA100, Metabolic Activation: NONE, Method: STANDARD PLATE
[3] = Test System: AMES SALMONELLA TYPHIMURIUM, Strain/Indicator: TA100, Metabolic Activation: RAT, LIVER, S-9, AROCLOR 1254, Method: STANDARD PLATE
[4] = Test System: AMES SALMONELLA TYPHIMURIUM, Strain/Indicator: TA1537, Metabolic Activation: RAT, LIVER, S-9, AROCLOR 1254, Method: STANDARD PLATE

Compound: c1ccc(NNc2ccccc2)cc1
- mutagenic call (End Point: IN VITRO CHROMOSOMAL ABERRATIONS, Test System: CHINESE HAMSTER OVARY CELLS, Metabolic Activation: NONE): active; positive; statistically significant increase, but not dose-related
- mutagenic call (End Point: IN VITRO CHROMOSOMAL ABERRATIONS, Test System: CHINESE HAMSTER OVARY CELLS, Metabolic Activation: RAT, LIVER, S-9, AROCLOR 1254): active; positive
- mutagenic call (Test System: AMES SALMONELLA TYPHIMURIUM, Strain/Indicator: TA98, Metabolic Activation: HAMSTER, LIVER, S-9, AROCLOR 1254, Method: STANDARD PLATE): inactive; negative
- mutagenic call (Test System: AMES SALMONELLA TYPHIMURIUM, Strain/Indicator: TA98, Metabolic Activation: HAMSTER, LIVER, S-9, Method: STANDARD PLATE): inactive; negative
- mutagenic call (Test System: AMES SALMONELLA TYPHIMURIUM, Strain/Indicator: TA98, Metabolic Activation: MOUSE, LIVER, S-9, AROCLOR 1254, Method: STANDARD PLATE): inactive; negative
- mutagenic call (Test System: AMES SALMONELLA TYPHIMURIUM, Strain/Indicator: TA98, Metabolic Activation: MOUSE, LIVER, S-9, Method: STANDARD PLATE): inactive; negative
- mutagenic call [1]: inactive; negative
- mutagenic call (Test System: AMES SALMONELLA TYPHIMURIUM, Strain/Indicator: TA98, Metabolic Activation: RAT, LIVER, S-9, Method: STANDARD PLATE): inactive; negative
- mutagenic call (Test System: AMES SALMONELLA TYPHIMURIUM, Strain/Indicator: TA100, Metabolic Activation: HAMSTER, LIVER, S-9, AROCLOR 1254, Method: STANDARD PLATE): inactive; negative
- mutagenic call (Test System: AMES SALMONELLA TYPHIMURIUM, Strain/Indicator: TA100, Metabolic Activation: HAMSTER, LIVER, S-9, Method: STANDARD PLATE): inactive; negative
- mutagenic call (Test System: AMES SALMONELLA TYPHIMURIUM, Strain/Indicator: TA100, Metabolic Activation: MOUSE, LIVER, S-9, AROCLOR 1254, Method: STANDARD PLATE): active; positive
- mutagenic call (Test System: AMES SALMONELLA TYPHIMURIUM, Strain/Indicator: TA100, Metabolic Activation: MOUSE, LIVER, S-9, Method: STANDARD PLATE): inactive; negative
- mutagenic call [2]: inactive; negative
- mutagenic call [3]: active; positive
- mutagenic call (Test System: AMES SALMONELLA TYPHIMURIUM, Strain/Indicator: TA100, Metabolic Activation: RAT, LIVER, S-9, Method: STANDARD PLATE): inactive; negative
- mutagenic call (Test System: AMES SALMONELLA TYPHIMURIUM, Strain/Indicator: TA1535, Metabolic Activation: HAMSTER, LIVER, S-9, AROCLOR 1254, Method: STANDARD PLATE): inactive; negative
- mutagenic call (Test System: AMES SALMONELLA TYPHIMURIUM, Strain/Indicator: TA1535, Metabolic Activation: HAMSTER, LIVER, S-9, Method: STANDARD PLATE): inactive; negative
- mutagenic call (Test System: AMES SALMONELLA TYPHIMURIUM, Strain/Indicator: TA1535, Metabolic Activation: MOUSE, LIVER, S-9, Method: STANDARD PLATE): inactive; negative
- mutagenic call (Test System: AMES SALMONELLA TYPHIMURIUM, Strain/Indicator: TA1535, Metabolic Activation: NONE, Method: STANDARD PLATE): inactive; negative
- mutagenic call (Test System: AMES SALMONELLA TYPHIMURIUM, Strain/Indicator: TA1535, Metabolic Activation: RAT, LIVER, S-9, AROCLOR 1254, Method: STANDARD PLATE): inactive; negative
- mutagenic call (Test System: AMES SALMONELLA TYPHIMURIUM, Strain/Indicator: TA1535, Metabolic Activation: RAT, LIVER, S-9, Method: STANDARD PLATE): inactive; negative
- mutagenic call (Test System: AMES SALMONELLA TYPHIMURIUM, Strain/Indicator: TA1537, Metabolic Activation: HAMSTER, LIVER, S-9, AROCLOR 1254, Method: STANDARD PLATE): inactive; negative
- mutagenic call (Test System: AMES SALMONELLA TYPHIMURIUM, Strain/Indicator: TA1537, Metabolic Activation: HAMSTER, LIVER, S-9, Method: STANDARD PLATE): inactive; negative
- mutagenic call (Test System: AMES SALMONELLA TYPHIMURIUM, Strain/Indicator: TA1537, Metabolic Activation: MOUSE, LIVER, S-9, AROCLOR 1254, Method: STANDARD PLATE): inactive; negative
- mutagenic call (Test System: AMES SALMONELLA TYPHIMURIUM, Strain/Indicator: TA1537, Metabolic Activation: MOUSE, LIVER, S-9, Method: STANDARD PLATE): inactive; negative
- mutagenic call (Test System: AMES SALMONELLA TYPHIMURIUM, Strain/Indicator: TA1537, Metabolic Activation: NONE, Method: STANDARD PLATE): inactive; negative
- mutagenic call [4]: inactive; negative
- mutagenic call (Test System: AMES SALMONELLA TYPHIMURIUM, Strain/Indicator: TA1537, Metabolic Activation: RAT, LIVER, S-9, Method: STANDARD PLATE): inactive; negative
- mutagenic call (Test System: AMES SALMONELLA TYPHIMURIUM, Strain/Indicator: TA1538, Metabolic Activation: HAMSTER, LIVER, S-9, AROCLOR 1254, Method: STANDARD PLATE): inactive; negative
- mutagenic call (Test System: AMES SALMONELLA TYPHIMURIUM, Strain/Indicator: TA1538, Metabolic Activation: HAMSTER, LIVER, S-9, Method: STANDARD PLATE): inactive; negative
- mutagenic call (Test System: AMES SALMONELLA TYPHIMURIUM, Strain/Indicator: TA1538, Metabolic Activation: MOUSE, LIVER, S-9, AROCLOR 1254, Method: STANDARD PLATE): inactive; negative
- mutagenic call (Test System: AMES SALMONELLA TYPHIMURIUM, Strain/Indicator: TA1538, Metabolic Activation: MOUSE, LIVER, S-9, Method: STANDARD PLATE): inactive; negative
- mutagenic call (Test System: AMES SALMONELLA TYPHIMURIUM, Strain/Indicator: TA1538, Metabolic Activation: NONE, Method: STANDARD PLATE): inactive; negative
- mutagenic call (Test System: AMES SALMONELLA TYPHIMURIUM, Strain/Indicator: TA1538, Metabolic Activation: RAT, LIVER, S-9, AROCLOR 1254, Method: STANDARD PLATE): inactive; negative
- mutagenic call (Test System: AMES SALMONELLA TYPHIMURIUM, Strain/Indicator: TA1538, Metabolic Activation: RAT, LIVER, S-9, Method: STANDARD PLATE): inactive; negative
- mutagenic call (Test System: E. COLI, Strain/Indicator: WP2 UVRA, Metabolic Activation: HAMSTER, LIVER, S-9, AROCLOR 1254, Method: STANDARD PLATE): inactive; negative
- mutagenic call (Test System: E. COLI, Strain/Indicator: WP2 UVRA, Metabolic Activation: HAMSTER, LIVER, S-9, Method: STANDARD PLATE): inactive; negative
- mutagenic call (Test System: E. COLI, Strain/Indicator: WP2 UVRA, Metabolic Activation: MOUSE, LIVER, S-9, AROCLOR 1254, Method: STANDARD PLATE): inactive; negative
- mutagenic call (Test System: E. COLI, Strain/Indicator: WP2 UVRA, Metabolic Activation: MOUSE, LIVER, S-9, Method: STANDARD PLATE): inactive; negative
- mutagenic call (Test System: E. COLI, Strain/Indicator: WP2 UVRA, Metabolic Activation: NONE, Method: STANDARD PLATE): inactive; negative
- mutagenic call (Test System: E. COLI, Strain/Indicator: WP2 UVRA, Metabolic Activation: RAT, LIVER, S-9, AROCLOR 1254, Method: STANDARD PLATE): inactive; negative
- mutagenic call (Test System: E. COLI, Strain/Indicator: WP2 UVRA, Metabolic Activation: RAT, LIVER, S-9, Method: STANDARD PLATE): inactive; negative

Compound: CN(C)c1ccc2cc3ccc(N(C)C)cc3nc2c1
- mutagenic call (Test System: AMES SALMONELLA TYPHIMURIUM, Strain/Indicator: TA98, Metabolic Activation: RAT, LIVER, S-9, AROCLOR 1254, Method: STANDARD PLATE): active; positive
- mutagenic call [3]: active; positive
- mutagenic call [4]: active; positive
- mutagenic call (Test System: CHINESE HAMSTER OVARY, Strain/Indicator: CHO-K1-BH4 (HGPRT)/6-THIOGUANINE, Metabolic Activation: S-9, Method: SUSPENSION/PLATE): active; positive
- mutagenic call (Test System: E. COLI, Strain/Indicator: WP2, Metabolic Activation: NONE, Method: PREINCUBATION): inactive; negative
- mutagenic call (Test System: MOUSE LYMPHOMA, Strain/Indicator: L5178Y (TK+/TK-), Metabolic Activation: S-9, Method: SUSPENSION/PLATE): active; positive

Compound: O=[N+]([O-])c1ccc2ccc3c([N+](=O)[O-])c4ccccc4c4ccc1c2c34
- mutagenic call (Test System: AMES SALMONELLA TYPHIMURIUM, Strain/Indicator: TA98(1,8-DNP6), Metabolic Activation: NONE): active; positive
- mutagenic call (Test System: AMES SALMONELLA TYPHIMURIUM, Strain/Indicator: TA98(NR), Metabolic Activation: NONE): active; positive
- mutagenic call (Test System: AMES SALMONELLA TYPHIMURIUM, Strain/Indicator: TA98(NR), Metabolic Activation: NONE, Method: PREINCUBATION): active; positive
- mutagenic call (Test System: AMES SALMONELLA TYPHIMURIUM, Strain/Indicator: TA98, Metabolic Activation: NONE): active; positive
- mutagenic call (Test System: AMES SALMONELLA TYPHIMURIUM, Strain/Indicator: TA98, Metabolic Activation: NONE, Method: PREINCUBATION): active; positive
- mutagenic call [1]: active; positive
- mutagenic call [2]: active; positive
